# From ChEMBL document CHEMBL4825679, “Water-Soluble Heliomycin Derivatives to Target i-Motif DNA” (J Nat Prod, 2021)
# The source made the active and inactive calls. The calls are words filed in the database; no cut-off is given here.
# Columns and labels:
# HeLa = assay: cells; conditions: Homo sapiens, 72 h
# Description: Antiproliferative activity against human HeLa cells assessed as growth inhibition after 72 hrs by MTT assay
# HMEC-1 = assay: Cytotoxicity against human HMEC-1 cells assessed as growth inhibition after 72 hrs by MTT assay; format: cell-based; conditions: HMEC-1, 72 h
# L1210 = assay: cells; conditions: Mus musculus, L1210, 72 h
# Description: Antiproliferative activity against mouse L1210 cells assessed as growth inhibition after 72 hrs by MTT assay
# CCRF-CEM = assay: cells; conditions: Homo sapiens, 72 h
# Description: Antiproliferative activity against human CEM cells assessed as growth inhibition after 72 hrs by MTT assay
# Homo sapiens [1] = species on record: Homo sapiens; assay: Binding affinity to cMYC DNA (unknown origin) assessed as stabilization of DNA by measuring change in melting temperature at 1 uM by FRET analysis
# [2] = Binding affinity to NASG DNA (unknown origin) assessed as stabilization of DNA by measuring change in melting temperature at 1 uM by FRET analysis
# DNA = assay: Binding affinity to double strand DNA (unknown origin) assessed as stabilization of DNA by measuring change in melting temperature at 1 uM by FRET analysis; format: nucleic-acid assay; conditions: Homo sapiens
# Quadruplex DNA = assay: Binding affinity to human G-quadruplex TeloG DNA assessed as stabilization of DNA by measuring change in melting temperature at 1 uM by FRET analysis; format: nucleic-acid assay
# Homo sapiens [3] = species on record: Homo sapiens; assay: Binding affinity to DAP DNA (unknown origin) assessed as stabilization of DNA by measuring change in melting temperature at 1 uM by FRET analysis
# Homo sapiens [4] = species on record: Homo sapiens; assay: Binding affinity to human TeloC DNA assessed as stabilization of DNA by measuring change in melting temperature at 1 uM by FRET analysis
# Homo sapiens [5] = species on record: Homo sapiens; assay: Binding affinity to HIF1A DNA (unknown origin) assessed as stabilization of DNA by measuring change in melting temperature at 1 uM by FRET analysis
# Homo sapiens [6] = species on record: Homo sapiens; assay: Binding affinity to ILPR DNA (unknown origin) assessed as stabilization of DNA by measuring change in melting temperature at 1 uM by FRET analysis
IC50 (HeLa) [nM],IC50 (L1210) [nM],IC50 (CCRF-CEM) [nM],ΔTm (Homo sapiens [1]) [°C],ΔTm [2] [°C],ΔTm (DNA) [°C],ΔTm (Quadruplex DNA) [°C],Activity (Homo sapiens [3]),Activity (Homo sapiens [4]),ΔTm (Homo sapiens [5]) [°C],ΔTm (Homo sapiens [6]) [°C],SMILES,IC50 (HMEC-1) [nM]
1600,200,2100,,,,,,,,,Cc1cc(NCCN)c2c3c4c(cc(O)c13)C(C)(C)C(=O)c1c(O)cc(O)c(c1-4)C2=O,1200
800,800,800,25,4,6,5,inactive,inactive,10,17,COc1cc2c3c4c(c(NCCN)cc(C)c14)C(=O)c1c(O)cc(O)c(c1-3)C(=O)C2(C)C,700
,,,,,,,,,,,COc1cccc2c1C(=O)c1c(O)c3c(c(O)c1C2=O)C[C@@](O)(C(=O)CO)C[C@@H]3O[C@H]1C[C@H](N)[C@H](O)[C@H](C)O1 [DOXORUBICIN],100
